From US20040076999A1, “Computer user interface facilitating acquiring and analyzing of biological specimen traits” (Baylor College of Medicine, priority 2002, published 2004)

What was measured:
Drosophila = conditions: feeding Drosophila; cited from earlier work
flies = conditions: administered orally to flies; cited from earlier work
wild-type flies = experiment: Motion tracking with wild-type flies; type: in vivo, Drosophila; conditions: flies fed 0.1M or 0.05M LiCl, compared to controls; FIG. 32
Method: (§1) Each movie is first scored individually to give one value per score and movie. A single movie is therefore considered to be the experimental base unit. Thereafter average values and standard errors for all scores are calculated from the movie score values for all repeats for a vial. Those averages and standard errors are the values shown in the PhenoScreen program. The data that is used in the scoring process are the trajectories of the corresponding movie. Each trajectory consists of a list of x- and y-coordinates of the position of the fly (and also size), with one list entry for every frame from when it starts moving in one frame until it stops in another.
Speed: The Speed score is calculated in the same way as the X-Speed score, but instead of only using the length of the x-component of the speed vector, the length of the whole vector is used. That is, [length]=square root of ([x-length]^2+[y-length]^2).
Turning: The Turning score is calculated in the same way as the Speed score, but instead of using the length of the speed vector, the absolute angle between the current speed vector and the previous one is used, giving a value between […].
Stumbling: The Stumbling score is calculated in the same way as the Speed score, but instead of using the length of the speed vector, the absolute angle between the current speed vector and the direction of body orientation is used, giving a value between 0 and 90 degrees.
Several sets of wild-type flies were assayed under various conditions to test the motion tracking software. Lithium Chloride (LiCl), a treatment for bipolar affective disorder in humans, is also known to induce behavioral changes in Drosophila (Xia et al., 1997). […] The results of this assay are shown in the bar graph of FIG. 32.

[1] = system: Drosophila expressing a mutant form of human Huntington (HD); experiment: Motion tracking with Drosophila model of Huntington disease; type: in vivo; conditions: HD flies with drug versus wt flies
Method: as §1
Cross150: The Cross150 score is the number of trajectories that either crossed the line at x=150 in the negative x-direction (from bottom to top of the vial) during the movie, or that were already above that line at the start of the movie. […] In other words this score measures the number of detected flies that either managed to hold on to the tube or that managed to climb above the x=150 line within the length of the movie.
Drosophila expressing a mutant form of human Huntington (HD) have a functional deficit that is quantifiable, reproducible, and is suitable for automated high-throughput screening. Drosophila (or specimen) movements can be analyzed for various characteristics and/or traits. […]

Question: Which lifespan (Drosophila) does the source give for 4-phenylbutyrate [PBA] here?
Answer: The lifespan was “significantly increase”.

Question: What about the locomotor vigor (Drosophila) of the same compound?
Answer: Its locomotor vigor is “without diminution”.

Question: For `NCC1(CC(=O)O)CCCCC1` [Gabapentin], which “mean recovery times following seizure” value (flies) is on record?
Answer: Its value is “reduce”.

Question: And the seizure (flies)?
Answer: Its seizure is “reduce”.

Question: With `[Cl-].[Li+]` [LiCl, Lithium Chloride] as the compound, how does the incidence of stumbling (wild-type flies) read?
Answer: The incidence of stumbling was “increase incidence”.

Question: And the incidence of turning (wild-type flies)?
Answer: The incidence of turning was “increase incidence”.

Question: And the speed (wild-type flies)?
Answer: The speed was “significant reduction”.

Question: For `O=C1NC(=O)C(c2ccccc2)(c2ccccc2)N1` [Phenyloin], which “mean recovery times following seizure” value (flies) is on record?
Answer: Its value is “reduce”.

Question: And the seizure (flies)?
Answer: The seizure was “reduce”.

Question: For `CC(/C=C/C(=O)NO)=C\[C@@H](C)C(=O)c1ccc(N(C)C)cc1` [TSA], which climbing ability [1] is on record?
Answer: The climbing ability was “restore climbing ability for HD flies to almost the same level as for wt flies”.

Question: What about the “speed restored to wt level” value [1] of the same compound?
Answer: The value was “the same is not true for speed”.

Question: For `CC1(C)O[C@@H]2[C@@H](CO[C@@]3(COS(N)(=O)=O)OC(C)(C)O[C@@H]23)O1` [Topiramate], which “mean recovery times following seizure” value (flies) is on record?
Answer: Its value is “reduce”.

Question: And the seizure (flies)?
Answer: Its seizure is “reduce”.
